# Source: article PMC10518257 (Nature Cancer, 2023)
# Several values for one entry are separate records, joined by “and”; a condition that tells them apart may be missing. Equal entries are not always repeated. Where two headings read alike, the source gives them in different places.
# What was measured:
# [1] = test system: Ba/F3 KIF5B–RET^WT allograft tumors; assay: Subcutaneous allograft efficacy study; assay type: in vivo, BALB/c nude mice; details: Ba/F3-KIF5B::RET, Ext. Data Fig. 9a
# [2] = molecular target: T1, panel of 255 (vepafestinib) or 256 (all other inhibitors) recombinant kinases (Homo sapiens, UniProt P16234); assay: Kinase selectivity profiling at a single concentration (Carna Biosciences); assay type: biochemical; details: 22 nM
# T1 construct: purchased Carna Biosciences
# [3] = molecular target: T2, panel of 255 (vepafestinib) or 256 (all other inhibitors) recombinant kinases (Homo sapiens, UniProt P35916); assay: as above; assay type: biochemical; details: 22 nM
# T2 construct: purchased Carna Biosciences
# [4] = molecular target: panel of 255 (vepafestinib) or 256 (all other inhibitors) recombinant kinases; assay: as above; assay type: biochemical; details: 22 nM, 256 kinases
# [5] = test system: Ba/F3 cells expressing KIF5B–RET^G810R; assay: Growth inhibition assay in Ba/F3 cells (CellTiter-Glo, 72 h); assay type: cell-based; details: replicate Sets 1-3
# LUAD-0077AS1 PDX = assay: PDX efficacy study; assay type: in vivo, NSG mice; parameters: Tumor volume: unit not given here; details: 10 mg/kg BID
# Ba/F3-RET^M918T = assay: Growth inhibition assay in Ba/F3 cells (CellTiter-Glo, 72 h); assay type: cell-based; details: Mus musculus, BaF3, 72 h, read-out: GI50 value (Mean ± SD), Ba/F3-RET^M918T, CellTiter-Glo, 72 h
# HBECp53-EV cells = assay: Growth inhibition (alamarBlue, 96 h); assay type: cell-based, human; details: for raw viability signal (Source Data Fig. 3b-c): HBEC-EV, replicate sets
# [6] = test system: Ba/F3 cells expressing KIF5B–RET^G810C; assay: Growth inhibition assay in Ba/F3 cells (CellTiter-Glo, 72 h); assay type: cell-based; details: replicate Sets 1-3
# [7] = test system: LUAD-0002AS1 cells (KIF5B::RET); assay: Dose-response western blotting, EC50 for inhibition of protein phosphorylation; assay type: cell-based; details: Homo sapiens, LUAD-0002AS1, 2 h, densitometry
# [8] = Animal weight of tumor-bearing mice; details: Ba/F3-KIF5B::RET G810R (Fig 8f), Selpercatinib 10 mg/kg BID
# T1 sequence (P16234 24-1089): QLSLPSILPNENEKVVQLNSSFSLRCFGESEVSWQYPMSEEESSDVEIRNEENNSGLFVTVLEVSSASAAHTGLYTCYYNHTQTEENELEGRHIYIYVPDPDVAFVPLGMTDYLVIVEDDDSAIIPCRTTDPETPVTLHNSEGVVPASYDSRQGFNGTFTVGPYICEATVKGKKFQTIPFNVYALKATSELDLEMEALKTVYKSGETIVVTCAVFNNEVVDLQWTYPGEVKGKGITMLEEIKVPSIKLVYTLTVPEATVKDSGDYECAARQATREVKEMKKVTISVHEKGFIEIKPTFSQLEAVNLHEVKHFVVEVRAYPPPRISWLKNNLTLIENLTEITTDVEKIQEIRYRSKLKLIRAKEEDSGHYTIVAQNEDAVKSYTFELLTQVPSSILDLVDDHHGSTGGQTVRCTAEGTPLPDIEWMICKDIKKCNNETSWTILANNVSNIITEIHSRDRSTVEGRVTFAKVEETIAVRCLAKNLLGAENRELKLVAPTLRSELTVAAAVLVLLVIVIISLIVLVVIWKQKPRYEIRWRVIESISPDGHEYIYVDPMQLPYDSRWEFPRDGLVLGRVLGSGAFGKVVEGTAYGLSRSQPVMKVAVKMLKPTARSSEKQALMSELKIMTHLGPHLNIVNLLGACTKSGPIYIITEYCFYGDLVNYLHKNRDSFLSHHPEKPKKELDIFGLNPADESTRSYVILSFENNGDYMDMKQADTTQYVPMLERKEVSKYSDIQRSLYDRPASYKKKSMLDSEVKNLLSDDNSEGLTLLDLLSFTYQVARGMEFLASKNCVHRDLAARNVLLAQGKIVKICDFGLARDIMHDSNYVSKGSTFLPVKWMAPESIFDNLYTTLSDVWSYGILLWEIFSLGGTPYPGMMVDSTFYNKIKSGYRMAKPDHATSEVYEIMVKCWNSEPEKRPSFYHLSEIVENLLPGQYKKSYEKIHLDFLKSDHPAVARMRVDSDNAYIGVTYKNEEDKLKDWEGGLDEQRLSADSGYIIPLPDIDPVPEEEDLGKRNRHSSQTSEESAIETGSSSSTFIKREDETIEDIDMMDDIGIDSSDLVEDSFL
# T2 sequence (P35916 25-1363): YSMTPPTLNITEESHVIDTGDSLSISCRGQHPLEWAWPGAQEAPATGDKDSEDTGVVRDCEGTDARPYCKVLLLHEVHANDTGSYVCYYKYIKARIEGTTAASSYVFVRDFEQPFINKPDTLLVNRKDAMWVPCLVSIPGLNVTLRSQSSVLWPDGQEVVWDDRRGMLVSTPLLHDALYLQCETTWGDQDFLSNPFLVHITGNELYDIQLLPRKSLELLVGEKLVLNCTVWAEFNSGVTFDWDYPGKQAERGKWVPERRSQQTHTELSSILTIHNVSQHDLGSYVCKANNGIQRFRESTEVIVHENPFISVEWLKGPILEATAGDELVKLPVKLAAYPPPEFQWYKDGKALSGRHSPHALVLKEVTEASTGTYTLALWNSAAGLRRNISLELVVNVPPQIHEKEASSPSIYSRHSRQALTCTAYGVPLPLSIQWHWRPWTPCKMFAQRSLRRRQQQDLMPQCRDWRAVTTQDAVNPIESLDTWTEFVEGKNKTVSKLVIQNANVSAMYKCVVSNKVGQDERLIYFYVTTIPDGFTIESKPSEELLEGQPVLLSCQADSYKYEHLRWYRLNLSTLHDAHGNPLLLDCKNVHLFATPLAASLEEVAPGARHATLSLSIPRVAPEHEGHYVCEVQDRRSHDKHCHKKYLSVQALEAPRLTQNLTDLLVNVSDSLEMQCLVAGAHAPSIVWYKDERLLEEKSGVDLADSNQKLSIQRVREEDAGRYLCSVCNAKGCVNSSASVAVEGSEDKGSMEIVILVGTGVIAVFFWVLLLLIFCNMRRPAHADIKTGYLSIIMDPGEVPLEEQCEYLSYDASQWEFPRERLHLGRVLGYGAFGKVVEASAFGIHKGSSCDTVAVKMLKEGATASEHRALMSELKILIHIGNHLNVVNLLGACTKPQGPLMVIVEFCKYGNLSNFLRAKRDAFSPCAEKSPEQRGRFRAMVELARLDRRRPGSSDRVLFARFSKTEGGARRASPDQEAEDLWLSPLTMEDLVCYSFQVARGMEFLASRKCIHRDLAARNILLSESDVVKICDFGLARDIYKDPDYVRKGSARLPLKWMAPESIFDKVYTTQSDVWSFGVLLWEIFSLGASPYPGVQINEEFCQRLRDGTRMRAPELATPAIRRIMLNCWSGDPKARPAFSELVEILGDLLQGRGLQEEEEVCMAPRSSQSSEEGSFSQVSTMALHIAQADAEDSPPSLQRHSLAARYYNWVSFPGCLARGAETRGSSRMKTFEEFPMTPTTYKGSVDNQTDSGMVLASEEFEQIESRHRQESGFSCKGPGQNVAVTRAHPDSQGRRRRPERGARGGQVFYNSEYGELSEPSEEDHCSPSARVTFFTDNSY
structure (smiles),measurement,setting,value
COc1ccc(CN2C3CC2CN(c2ccc(-c4cc(OCC(C)(C)O)cn5ncc(C#N)c45)cn2)C3)cn1 [Selpercatinib],Tumor Volume Mean,"[1]; 3 mg/kg BID, Day 1",153.36 mm3
same,Tumor Volume Mean,"[1]; 3 mg/kg BID, Day 4",200.42 mm3
same,Tumor Volume Mean,"[1]; 3 mg/kg BID, Day 8",331.73 mm3
same,Tumor Volume Mean,"[1]; 3 mg/kg BID, Day 11",595.39 mm3
same,Tumor Volume Mean,"[1]; 3 mg/kg BID, Day 15",703.72 mm3
same,Tumor Volume Mean,"[1]; 10 mg/kg BID, Day 1",152.35 mm3
same,Tumor Volume Mean,"[1]; 10 mg/kg BID, Day 4",168.16 mm3
same,Tumor Volume Mean,"[1]; 10 mg/kg BID, Day 8",206.58 mm3
same,Tumor Volume Mean,"[1]; 10 mg/kg BID, Day 11",318.64 mm3
same,Tumor Volume Mean,"[1]; 10 mg/kg BID, Day 15",406.01 mm3
same,Tumor Volume Mean,"[1]; 30 mg/kg BID, Day 1",155.70 mm3
same,Tumor Volume Mean,"[1]; 30 mg/kg BID, Day 4",126.28 mm3
same,Tumor Volume Mean,"[1]; 30 mg/kg BID, Day 8",138.87 mm3
same,Tumor Volume Mean,"[1]; 30 mg/kg BID, Day 11",107.82 mm3
same,Tumor Volume Mean,"[1]; 30 mg/kg BID, Day 15",112.41 mm3
same,Tumor Volume Mean,"[1]; 100 mg/kg BID, Day 1",157.17 mm3
same,Tumor Volume Mean,"[1]; 100 mg/kg BID, Day 4",107.92 mm3
same,Tumor Volume Mean,"[1]; 100 mg/kg BID, Day 8",75.50 mm3
same,% Inhibiton PDGFRα,[2],28.7%
same,% Inhibiton FLT4,[3],84.9%
same,kinases inhibited by >50%,[4],three
same,GI50,[5]; Ba/3-KIF5B-RET-G810R,1.07 µM and 1.19 µM
same,GI50,"[5]; Mus musculus, BaF3, Ba/3-KIF5B-RET-G810R",0.8 µM
same,Area Under Curve Mean,LUAD-0077AS1 PDX; Fig. 6b LUAD-0077AS1 tumor growth,-23
same,"Change in tumor volume (block without heading, Fig. 6b)","LUAD-0077AS1 PDX; LUAD-0077AS1, individual animals",38.5614 and 19.1252 and 18.7579 and 13.1905 and -24.8651
same,Tumor volume,"LUAD-0077AS1 PDX; LUAD-0077AS1, treatment day 0, individual animals",87.11 (3×) and 85.5 and 88.7
same,Tumor volume,"LUAD-0077AS1 PDX; LUAD-0077AS1, treatment day 4, individual animals",68.07 (2×) and 74.9 and 73.54 and 70.82
same,Tumor volume,"LUAD-0077AS1 PDX; LUAD-0077AS1, treatment day 7, individual animals",60.32 and 69.38 and 66.76 and 62.86
same,Tumor volume,"LUAD-0077AS1 PDX; LUAD-0077AS1, treatment day 11, individual animals",55.4 and 58.99 and 56.5 and 54.36 and 55.52
same,Tumor volume,"LUAD-0077AS1 PDX; LUAD-0077AS1, treatment day 14, individual animals",43.41 and 58.99 (2×) and 54.36 and 55.52
same,Tumor volume,"LUAD-0077AS1 PDX; LUAD-0077AS1, treatment day 19, individual animals",65.45 and 118.47 and 103.45 and 103.77 and 100.4
same,Tumor volume,"LUAD-0077AS1 PDX; LUAD-0077AS1, treatment day 22, individual animals",73.3 and 171.06 and 147.55 and 142.9 and 164.22
same,Tumor volume,"LUAD-0077AS1 PDX; LUAD-0077AS1, treatment day 25, individual animals",73.3 and 231.59 and 205.8 and 209.11 and 214.85
same,GI50,Ba/F3-RET^M918T,0.00124 ± 0.00078 µM
same,raw viability signal (Source Data Fig. 3b-c),HBECp53-EV cells; 0.01 nM,19116.4 (2×) and 30437.1
same,raw viability signal (Source Data Fig. 3b-c),HBECp53-EV cells; 0.1 nM,18667.6 (2×) and 30340.4
same,raw viability signal (Source Data Fig. 3b-c),HBECp53-EV cells; 1 nM,19461.2 (2×) and 29511.3
same,raw viability signal (Source Data Fig. 3b-c),HBECp53-EV cells; 10 nM,19276.9 (2×) and 28618.6
same,raw viability signal (Source Data Fig. 3b-c),HBECp53-EV cells; 100 nM,19331.4 (2×) and 28192.3
same,raw viability signal (Source Data Fig. 3b-c),HBECp53-EV cells; 1000 nM,18208.7 (2×) and 25648.6
same,raw viability signal (Source Data Fig. 3b-c),HBECp53-EV cells; 10000 nM,8503.33
same,IC50,"HBECp53-EV cells; Homo sapiens, 96 h, read-out: IC50 for Inhibition of Growth (95% CI)",11.4 µM
same,GI50,[6]; Ba/3-KIF5B-RET-G810C,0.201 µM and 0.181 µM
same,GI50,"[6]; Mus musculus, BaF3, Ba/3-KIF5B-RET-G810C",0.233 µM
same,EC50,"[7]; read-out: EC50 for Inhibition of Protein Phosphorylation (95% CI), AKT S473",0.002 µM
same,EC50,"[7]; read-out: EC50 for Inhibition of Protein Phosphorylation (95% CI), ERK1/2 T202/Y204",0.0015 µM
same,EC50,"[7]; read-out: EC50 for Inhibition of Protein Phosphorylation (95% CI), MEK1/2 S217/S221",0.0013 µM
same,EC50,"[7]; read-out: EC50 for Inhibition of Protein Phosphorylation (95% CI), P70 RSK T421/S424",0.0014 µM
same,EC50,"[7]; read-out: EC50 for Inhibition of Protein Phosphorylation (95% CI), RET Y905",0.0004 µM
same,EC50,"[7]; read-out: EC50 for Inhibition of Protein Phosphorylation (95% CI), S6RP S235/S236",0.0005 µM
same,"Animal Weight, Mean",[8]; day 1,27.18 g
same,"Animal Weight, Mean",[8]; day 4,26.90 g
same,"Animal Weight, Mean",[8]; day 8,26.00 g
same,"Animal Weight, Mean",[8]; day 11,26.60 g
